Test results taken from patent US12521441B2, “Modified IL-2 polypeptides and uses thereof” (Bright Peak Therapeutics AG, priority 2020, dated 2026).

Experiments:
[1] = molecular target: T1, human IL2 receptor alpha (CD25) (Homo sapiens, UniProt P01589); assay: Surface plasmon resonance binding to IL-2R alpha monomer subunit; conditions: SPR
T1 construct: purchased Abcam Ab221397
T1 sequence (P01589 22-272): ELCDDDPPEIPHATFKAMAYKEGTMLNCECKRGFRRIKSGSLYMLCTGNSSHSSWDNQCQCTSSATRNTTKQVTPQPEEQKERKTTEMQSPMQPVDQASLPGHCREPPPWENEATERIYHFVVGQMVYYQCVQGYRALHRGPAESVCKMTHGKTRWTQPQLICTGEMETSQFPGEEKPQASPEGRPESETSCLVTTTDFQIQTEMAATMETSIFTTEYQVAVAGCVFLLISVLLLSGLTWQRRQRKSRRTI
Description: (§1) The interaction of the IL-2 polypeptides with human IL-2 receptor subunits were measured with Surface Plasmon Resonance (SPR) technology at Crelux, a Wuxi AppTec company, Martinsried, GER. For these studies, anti-His antibodies were bound by amine coupling onto a CMS chip to capture 42 nM of His tagged human IL2 receptor alpha (Abcam, Ab221397) or of His tagged human IL2 receptor beta (Abcam, Ab174003). In other settings, 42 nM of alpha and beta IL2 receptors were mixed and pre-incubated for 30 min before capture of the alpha/beta heterodimer IL2 receptor.
(§2) Regeneration of the surface back to amine coupled anti His antibody was done after every concentration of analyte. To measure the protein association to the receptors, the samples were injected with a flow rate of 50 ul/min for 30 s, followed by 180s buffer only to detect the dissociation. The used running buffer was 1×PBS with 0.05% Tween20. The relative response units (RU, Y-axis) are plotted against time (s, X-axis) and analyzed in a kinetic 1:1 binding model for the monomer receptor binding and with a kinetic heterogenous ligand fit model for the alpha/beta heterodimer binding.
NT indicates the IL-2 polypeptide as not tested.

[2] = molecular target: T2, human IL2 receptor beta (CD122) (Homo sapiens, UniProt P14784); assay: Surface plasmon resonance binding to IL-2R beta monomer subunit; conditions: SPR
T2 construct: purchased Abcam Ab174003
T2 sequence (P14784 27-551): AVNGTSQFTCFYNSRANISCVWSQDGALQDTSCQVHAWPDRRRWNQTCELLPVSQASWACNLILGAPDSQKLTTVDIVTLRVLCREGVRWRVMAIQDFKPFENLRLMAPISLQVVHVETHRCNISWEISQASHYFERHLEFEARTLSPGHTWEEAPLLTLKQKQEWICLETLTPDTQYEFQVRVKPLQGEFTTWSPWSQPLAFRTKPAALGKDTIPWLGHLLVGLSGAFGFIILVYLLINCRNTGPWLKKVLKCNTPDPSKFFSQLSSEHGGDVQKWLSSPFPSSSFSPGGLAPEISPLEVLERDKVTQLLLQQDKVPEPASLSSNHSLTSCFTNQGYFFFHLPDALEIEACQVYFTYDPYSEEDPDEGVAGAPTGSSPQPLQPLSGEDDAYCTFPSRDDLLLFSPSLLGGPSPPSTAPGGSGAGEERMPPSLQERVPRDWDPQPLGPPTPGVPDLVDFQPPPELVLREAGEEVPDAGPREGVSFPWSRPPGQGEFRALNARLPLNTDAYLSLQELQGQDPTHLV
Description: as §1, §2
NT indicates the IL-2 polypeptide was not tested.

[3] = molecular target: T3, alpha/beta heterodimer IL2 receptor (Homo sapiens, UniProt P14784); assay: Surface plasmon resonance binding to IL2R alpha/beta heterodimer
T3 construct: purchased Abcam Ab221397; Ab174003
T3 sequence (P14784 27-239 limits assumed): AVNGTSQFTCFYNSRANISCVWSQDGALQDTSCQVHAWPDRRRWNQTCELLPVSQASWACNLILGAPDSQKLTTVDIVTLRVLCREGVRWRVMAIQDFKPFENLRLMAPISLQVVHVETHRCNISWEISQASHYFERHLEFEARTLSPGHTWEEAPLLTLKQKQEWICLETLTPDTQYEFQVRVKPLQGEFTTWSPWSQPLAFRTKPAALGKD
Description: as §1, §2
Additional surface plasmon resonance experiments were performed to determine the binding characteristics of the modified IL-2 polypeptides with IL2R alpha/beta heterodimers. The experiments were performed as indicated above, but the monomeric subunits were replaced with the IL2R heterodimers. […] In the table below, NT indicates the composition was not tested.
The secondary interactions between IL-2R heterodimers and the modified IL-2 polypeptides were also measured. […] In the table below, NT indicates the composition was not tested.

[4] = test system: Treg cells (CD4+, CD25Hi, FoxP3+); assay: pStat5 induction in human primary pan T-cells, T-Reg subset; format: cell-based
Description: (§3) An experiment was performed to determine the effect of various IL-2 polypeptides on human T-cell populations. Primary pan T-cells (CD4+, CD8+ and Tregs T cells) were obtained from healthy donor buffy coat by peripheral blood mononuclear cell (PBMC) purification using ficoll gradient centrifugation followed by negative selection with magnetic beads and then cryopreserved until use. […] After incubation, cells were fixed and permeabilized using the Transcription Factor Phospho Buffer kit followed by a surface and intracellular immunostaining for CD4, CD8, CD25, FoxP3, CD45RA and pStat5 to enable cell subset identification and measurement of Stat5 (signal transducer and activator of transcription 5) phosphorylation levels. The FACS (fluorescence activated cell sorting) measurement was done either with a NovoCyte or a Quanteon Flow Cytometer from Acea.
(§4) pStat5 MFI ([…] fluorescence intensity) signals for the T-cell subsets shown in Table 12 were plotted against concentrations of aldesleukin or of modified IL-2 polypeptides. Half maximal effective concentration (EC50) was calculated based on a variable slope, four parameter analysis using GraphPad PRISM software.

CD8 Teff cells (CD8+) = assay: pStat5 induction in human primary pan T-cells, CD8 Teff subset; format: cell-based
Description: as §3, §4

[5] = mouse, in vivo, iv, 0.8 mg/kg
Description: A single-dose pharmacokinetic/pharmacodynamic experiment was performed in mice. Naïve, 6-8 weeks old, C57Bl/6 mice (Shanghai SLAC Laboratory Animal Co., LTD, Shanghai, China) received a single bolus intravenous (i.v.) injection of 52 nmoles/kg wild type or of modified IL-2 polypeptides. […] At indicated time points, blood samples were collected in the presence of EDTA either via tail vein sampling or via cardiac puncture (end-point).
Blood samples were immediately processed by centrifugation. Plasma samples were cryopreserved at −80° C. until bioanalysis.
Bioanalysis of plasma samples was performed using a qualified human IL-2 LegendPlex bead assay (Biolegend, #740717, #740368, #740758). Concentrations of wild type and of modified IL-2 polypeptides and the internal standard in samples derived from plasma were determined using human IL-2 LegendPlex bead assay. PK data were subjected to a non-compartmental pharmacokinetic analysis by using the Phoenix WinNonlin software (version 6.3, Pharsight, Mountain View, CA). The linear/log trapezoidal rule was applied in obtaining the PK parameters.
The PK parameters were determined by means of non-compartmental analysis (NCA) using R package “PK”. The area under plasma concentration-time curves (AUC0-last) were calculated using the linear trapezoidal rule on the arithmetic means at the different time points while the extrapolation necessary for the AUC0-inf and AUMC 0-Inf was achieved assuming an exponential decay on the last 3 time points.

[6] = test system: Tregs (CD4+, FoxP3+, CD25Hi); assay: Single-dose pharmacodynamics in mice, Tregs (pSTAT5, Ki67, frequency); format: in vivo, C57Bl/6 mice; conditions: for Tregs % of pSTAT5 positive cells / Ratio Tregs/CD8+: 1 h after injection; for Ratio Tregs/CD8+: pSTAT5 positive cells
Description: (§5) Cell pellets were treated with 1×Lyse/Fix buffer (BD Bioscience, 558050) during 10 min. […] Cells were then permeabilized using cold BD Perm Buffer III and stained with antibodies against either Ki67, Siglec-F, CD4, CD8, FoxP3, CD62L, CD44 or pSTAT5. The FACS (fluorescence activated cell sorting) measurement was done with a Fortessa X-20 Flow Cytometer from BD. For each cell subset indicated below in Table 14, the percentage of pSTAT5 positive cells, and percentage of Ki67 positive cells, cell counts, and cell frequency was determined. [table]

CD8+ Teff (CD3+, CD8+) = assay: Single-dose pharmacodynamics in mice, CD8+ Teff (pSTAT5, Ki67, frequency); format: in vivo, C57Bl/6 mice; conditions: for CD8+ % of pSTAT5 positive cells: 1 h after injection
Description: as §5

[7] = mice, 0.8 mg/kg, at peak time point

Aldesleukin: aldesleukin (SEQ ID NO: 2), comparator IL-2
Ka ([1]; Alpha (CD25) monomer): 6.74e+06 M⁻¹ s⁻¹
dissociation rate constant (koff) ([1]; Alpha (CD25) monomer): 0.154 s⁻¹
Kd ([1]; read-out: observed Kd with IL-2Rα): 23 nM
Ka ([2]; Beta (CD122) monomer): 319000 M⁻¹ s⁻¹
koff (dissociation rate constant) ([2]; Beta (CD122) monomer): 0.289 s⁻¹
Kd ([2]; as stated in text (FIG. 3), read-out: Kd, β subunit of the IL-2 receptor): ~900 nM
Ka ([3]; primary interaction): 8.01e+06 M⁻¹ s⁻¹
dissociation rate constant (koff, 1/s) ([3]; primary interaction): 0.00175 s⁻¹
Ka ([3]; secondary interaction): 5.13e+06 M⁻¹ s⁻¹
EC50 ([4]; pStat5 MFI, 20 min to 40 min stimulation, read-out: Tregs EC50): 0.019 nM
potency in inducing Treg cells versus Teff cells (in words) ([4]; pStat5 dose response curves): substantially more potent in inducing Treg cells than Teff cells
EC50 (CD8 Teff cells (CD8+); pStat5 MFI, 20 min to 40 min stimulation): 9.07 nM
CD8/Tregs (CD8 Teff cells (CD8+); ratio of CD8+ EC50 to Tregs EC50): 477
AUC0-last [5]: 1227 ng·h/mL
AUCD [5]: 1534 (ng/mL*h)*(mg/kg)
Cl [5]: 10.85 mL/min/kg
MRTlast [5]: 36.6 min
T1/2 [5]: 20.8 min
Timepoint at Peak Tregs ([6]; Ki67+ cells, mice, 0.8 mg/kg): 20 h
Timepoint at Peak Tregs ([6]; frequency within CD3+, mice, 0.8 mg/kg): 20 h
Tregs % of Ki67+ positive cells [6, 7]: 28.3 ± 3.7%
Tregs % of Tregs within CD3+ [6, 7]: 3.52 ± 0.4%
Tregs % of pSTAT5 positive cells ([6]; mice, 0.01 mg/kg): 81.0 ± 5.8%
Tregs % of pSTAT5 positive cells ([6]; mice, 0.03 mg/kg): 86.9 ± 5.2%
Tregs % of pSTAT5 positive cells ([6]; mice, 0.1 mg/kg): 91.1 ± 2.9%
Tregs % of pSTAT5 positive cells ([6]; mice, 0.3 mg/kg): 96.2 ± 1.3%
Tregs % of pSTAT5 positive cells ([6]; mice, 0.8 mg/kg): 93.3 ± 3.8%
Ratio Tregs/CD8+ ([6]; 0.01 mg/kg): 3.8
Ratio Tregs/CD8+ ([6]; 0.03 mg/kg): 2.8
Ratio Tregs/CD8+ ([6]; 0.1 mg/kg): 3.1
Ratio Tregs/CD8+ ([6]; 0.3 mg/kg): 1.5
Ratio Tregs/CD8+ ([6]; 0.8 mg/kg): 1.3
CD8+ % of CD8+ within CD3+ (CD8+ Teff (CD3+, CD8+); 0.8 mg/kg, at peak time point): 32.1 ± 3^ %
CD8+ % of Ki67+ positive cells (CD8+ Teff (CD3+, CD8+); 0.8 mg/kg, at peak time point): 19.6 ± 3^ %
CD8+ % of pSTAT5 positive cells (CD8+ Teff (CD3+, CD8+); 0.01 mg/kg): 21.3 ± 6.7%
CD8+ % of pSTAT5 positive cells (CD8+ Teff (CD3+, CD8+); 0.03 mg/kg): 31.3 ± 6.2%
CD8+ % of pSTAT5 positive cells (CD8+ Teff (CD3+, CD8+); 0.1 mg/kg): 29.6 ± 4.4%
CD8+ % of pSTAT5 positive cells (CD8+ Teff (CD3+, CD8+); 0.3 mg/kg): 63.2 ± 9.0%
CD8+ % of pSTAT5 positive cells (CD8+ Teff (CD3+, CD8+); 0.8 mg/kg): 74.1 ± 11%
Timepoint at Peak Teff (CD8+ Teff (CD3+, CD8+); Ki67+ cells, 0.8 mg/kg): 48 h
Timepoint at Peak Teff (CD8+ Teff (CD3+, CD8+); frequency within CD3+, 0.8 mg/kg): 36 h
